# Assay results taken from patent US20030138533A1, “Food and beverage perservative” (Nutraceutical Clinical Laboratories International, Inc., priority 2002, published 2003).
# Test system: mold
# Experiment: Mold growth in white pan bread during storage (shelf-life test)
# Settings: white pan bread mix; test preservative about 3.5% of total mix weight, control 0.27% calcium propionate; same packaging and storage; 90 day test period
# Procedure: The test sample preservative composition as shown in Table 1 was added to white pan bread mix in the final minute of mixing after yeast and salt had been blended into the mixture. The preservative composition comprised about 3.5% of the total weight of the mix. A control sample containing 0.27% calcium propionate was added to another identical sample of white pan bread mix. The control sample molded in 12 days. The test sample remained free of any sign of mold growth during a 90 day test period. Both the test sample and the control sample were packaged and stored in the same conditions throughout the test period.
structure (smiles),measurement,value
CCC(=O)[O-].CCC(=O)[O-].[Ca+2] [calcium propionate],time without mold growth (time until the bread sample molded),12 days
